From PMC9814901, “One-pot synthesis of cyclic-aminotropiminium carboxylate derivatives with DNA binding and anticancer properties” (Communications Chemistry, 2022)

Key:
4T1 cell derived tumor = experiment: 4T1 xenograft tumor growth in Balb/C mice; format: in vivo, mouse; conditions: Balb/C 4T1 model, 6e 1 mg/kg/day, 6j 0.5 mg/kg/day, 6n 1 mg/kg/day
Method: To understand the potential and tolerance of 6e, 6j, and 6n compounds using in vivo system, we used Balb/C 4T1 cell line xenograft mouse model. Treatment was initiated after tumors reached a mean value of 20.47 mm^3 (day 8) and treated with 6e, 6j, and 6n at a dosage of 1 mg/kg/day, 0.5 mg/kg/day, and 1 mg/kg/day, respectively. Body weight and activity were observed three days post injection, every alternative day. […] Based on this study, we deduced that these compounds are well tolerated by the animals.
All animal experiments were approved by the Institutional Animal Ethics Committee, NISER, India (AH-214). Female BALB/c mice (aged 6–8 weeks, 18–20 g) were injected with 1 × 10^6 4T1 breast cancer cells into the mammary fat pad. After one week, 6j (0.5 mg/kg), 6e (1 mg/kg) and 6n (1 mg/kg) compounds were injected intraperitoneally in mice at the interval of every 24 h for a period of 21 days. Thereafter, the mice were sacrificed and the xenograft tumors were removed, weighed, and photographed.

human genomic DNA [1] = experiment: Microscale thermophoresis (MST) binding of cATC derivatives to human genomic DNA; conditions: cATC derivative 20 µM, human genomic DNA 40 fM to 75 pM
Description: Further, we examined the effect of cATC derivatives (6a/6e/6j/6n) on the ct-DNA duplex structure by circular dichroism (CD) studies. We recorded the CD spectra of ct-DNA with the increasing concentration of cATC derivatives (SM, Fig. S24). […] Next, we examined the binding site of cATC derivative (ligand) at the DNA duplex structure by using AutoDock-Vina, a well-reported computational docking program. We performed docking of cATC derivatives (6a/6d/6k) crystal structure (ligand) with dodecamer DNA duplex crystal structure (PDB ID-1BNA) as the receptor. Our docking results strongly support the non-covalent interaction of cATC derivatives (6a/6d/6k) at the DNA-minor groove with the binding affinity ~7.0 Kcal/mole, mostly hydrophobic interactions (SM, Figs. S25–7, Table S8). […]
DNA was isolated from 10 × 10^6 HeLa cells by QIAmp DNA mini Kit (Qiagen, Germany). cATC derivatives (6e, 6j, and 6n dissolved in a mixture of 1X PBS containing 1% DMSO) and DNA ranging from a concentration of 40 fM to 75pM (resuspended in 1X TE with 0.05% Tween-20), was used for analyzing the interaction of cATC derivatives with DNA. […] 15 µl of the above mixture was loaded in capillaries and binding affinity was measured using the NanoTemper instrument followed by analysis through NanoTemper analysis 1.2.231 software.

HeLa cells [2] = experiment: Cell cycle analysis by flow cytometry (PI); format: cell-based; conditions: 18 h, 6e 18 μM, 6j 19 μM, 6n 19 μM
Method: HeLa cells were cultured in 6 well plates with initial density 0.5 × 10^6 cells/well. These cells were treated with the IC50 concentration of 6n, 6j, and 6e compounds for 18 h. The cells were washed with 1X PBS and fixed with 70% ethanol. After washing, cells were resuspended in 500 μl PBS containing Propidium Iodide (PI) (500 μg/ml), RNase A (1X), and Triton X-100 (0.1%), and incubated for 30 min in the dark. Finally, the cells were analyzed by flow cytometry (BD Biosciences, CA, USA). The relative proportions of cells with DNA content G0–G1 (2n), S phase (>2n but <4n), and G2/M phase (4n) were acquired and analyzed using CellQuest Pro software (BD Biosciences).

human genomic DNA [3] = experiment: Agarose gel electrophoresis of human genomic DNA treated with cATC derivatives; format: binding; conditions: 1% agarose gel; EtBr control
Description: Further, we examined the effect of cATC derivatives (6a/6e/6j/6n) on the ct-DNA duplex structure by circular dichroism (CD) studies. We recorded the CD spectra of ct-DNA with the increasing concentration of cATC derivatives (SM, Fig. S24). […] Next, we examined the binding site of cATC derivative (ligand) at the DNA duplex structure by using AutoDock-Vina, a well-reported computational docking program. We performed docking of cATC derivatives (6a/6d/6k) crystal structure (ligand) with dodecamer DNA duplex crystal structure (PDB ID-1BNA) as the receptor. Our docking results strongly support the non-covalent interaction of cATC derivatives (6a/6d/6k) at the DNA-minor groove with the binding affinity ~7.0 Kcal/mole, mostly hydrophobic interactions (SM, Figs. S25–7, Table S8). […] Overall, cATC derivatives non-covalently bind with DNA duplex through the non-intercalative mode without affecting the native duplex structure. Next, we examined the DNA binding affinity of cATC derivatives (6e/6j/6n) by gel-electrophoresis. The different concentrations of human genomic DNA were treated with EtBr (control) and cATC derivatives (6e/6j/6n) and ran on 1% agarose gel (SM, Fig. S28A–D). […] Further, the Microscale thermophoresis (MST) technique was used to calculate the binding affinities of cATC derivatives (6e/6j/6n) (20 µM) with varying concentrations of human genomic DNA (40 fM to 75 pM).

HeLa cells [4] = experiment: Confocal microscopy localization in HeLa cells; format: cell-based; conditions: IC50 concentrations, 12-18 h
Method: Herein we have shown that cATC fluorescent derivatives bind with ct-DNA in the non-intercalating mode. Thus we assumed that cATC derivatives might bind to the DNA, localizing within the nucleus and affecting the cell division. We studied the localization of fluorescent signals in HeLa cells using IC50 concentrations of compounds (6e, 6j, and 6n) at different time points using a confocal microscope. For all the compounds initially (at 12 h), the signal was present in the cytoplasm and the nucleus (Fig. 6A–C). With increasing time, the signal became more intense in the nucleus (Fig. 6A–D).
HeLa cells (60,000) were grown onto a coverslip (Coverglass for cell Growth™, Fisherbrand, USA) in a 24-well plate. […] Thereafter, cells were fixed in 4% paraformaldehyde (Himedia), washed with ice-cold 1X PBS, permeabilized with 0.25% Triton X-100 (Sigma), and washed with 0.1% PBST. The cell was counter stained with 49,6-diamidino-2-phenylindole, dihydrochloride (DAPI, Invitrogen) and mounted using one drop of ProLong® Gold antifade reagent (Invitrogen) on a slide. Images were acquired by fluorescence microscope (Leica SP8 TCS) and analyzed using ImageJ (NIH).

- behavior/activity versus control group (4T1 cell derived tumor; intraperitoneal): normal behavior/activity
- Hill's coefficient (nH) (human genomic DNA [1]): 1.6
SMILES: Cc1cccc(C2C(C(=O)[O-])N(CCc3ccccc3)c3ccccc[c+]3N2Cc2ccccc2)c1 (stereo not drawn) [Compound 6e]
- tumor growth / tumor size (4T1 cell derived tumor; day 8 till day 20): inhibit tumor growth in vivo
- body weight versus control group (4T1 cell derived tumor; intraperitoneal): no significant difference in body weight
- cells in G2/M phase (HeLa cells [2]; control 24.36%): 7.05%
- cells in S phase (HeLa cells [2]; control 28.84%): 34.61%
- cells in G0/G1 phase (HeLa cells [2]; control 46.78%): 58.33%
- visibility of DNA-bound compound on agarose gel under UV light (human genomic DNA [3]): signal was equivalent to EtBr
- cellular localization of fluorescent signal (HeLa cells [4]): penetrate the cell membrane and localize to the nucleus
